Here are results for 6 compounds from patent US6982258B2, “Low-calcemic oxime analogs of 1α,25-dihydroxy vitamin D3” (Cytochroma Inc., priority 2001, dated 2006).

Tested on in one data set: not listed separately
Kind of data set: Calcium excretion (hypercalcemia assay, rat urine). The following applies: administered orally daily for one week. The data set is classed as in vivo. The procedure:
As a measure of their safety in animals, compound of Formula I(a) was administered orally to rats daily for 1 week at a similar dose (0.5 microgram/Kg body weight) to calcitriol, using a procedure described previously (Posner G. H. et al. J. Med. Chem. 1999, 42, 3425-3435). A graph showing the effect of compound I(a) (indicated as BH 1625(NOH)) on calcium levels in rat urine in comparison to calcitriol (1α,25-Dihydroxy vitamin D3) is shown in FIG. 6.
In the case of `C=C1/C(=C\C=C2/CCC[C@]3(C)[C@@H]([C@H](C)CCCC(C)(C)O)CC[C@@H]23)C[C@@H](O)C[C@@H]1O` [calcitriol, 1α,25-Dihydroxy vitamin D3], the “levels of calcium in the urine” value is on record as “significant increase in calcium levels in the urine”.

The next data set deals with T1, CYP24 (Homo sapiens, UniProt Q07973).
T1 construct: When the HPK1A-ras cells were 80-90% confluent, add 1 μL 10^−5 M 1,25(OH)2D3; endogenous in cells; host or cells: HPK1A-ras cells induced with 10^-8 M 1,25(OH)2D3
T1 sequence (Q07973 36-514): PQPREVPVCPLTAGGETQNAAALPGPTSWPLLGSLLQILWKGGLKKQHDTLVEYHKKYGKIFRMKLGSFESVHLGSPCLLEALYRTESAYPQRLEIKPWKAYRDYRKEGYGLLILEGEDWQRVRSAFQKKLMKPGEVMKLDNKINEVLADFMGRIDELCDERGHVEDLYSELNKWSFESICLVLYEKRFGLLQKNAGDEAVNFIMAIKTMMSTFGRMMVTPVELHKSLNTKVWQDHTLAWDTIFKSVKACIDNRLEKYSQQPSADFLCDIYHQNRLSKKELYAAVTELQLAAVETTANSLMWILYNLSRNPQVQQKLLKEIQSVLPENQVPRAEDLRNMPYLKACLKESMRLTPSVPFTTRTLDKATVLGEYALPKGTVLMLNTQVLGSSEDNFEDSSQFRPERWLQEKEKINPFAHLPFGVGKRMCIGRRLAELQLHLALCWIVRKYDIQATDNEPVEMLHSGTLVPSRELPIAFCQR
Briefly: CYP24 enzyme assay (induced HPK1A-ras cells). The settings on record: ketoconazole as control standard. The data set is classed as cell-based. The procedure: CYP24 Enzyme Assay (Induced […] Cells)
• 1,25(OH)2D3 10^−5 M • [^3H]-1,25(OH)2D3 25,000 CPM/μL • HPK1A-ras cells • 48-well plate • Methanol • Dichlorimethane • Saturated KCI:KCI 30 g, H2O400 ml (ii) Procedure: • 1. Induction of HPK1A-ras cells (The day before assay) • When the HPK1A-ras cells were 80-90% confluent, add 1 μL 10^−5 M 1,25(OH)2D3 to 1 mL medium in the plate (final concentration is 10^−8 M). • 2. Preparation of cell suspension • After 18 to 20 hours induction, removed the medium and washed the cell twice with PBS. Then tripsinized the cells from plate, centrifuge (2,000 rpm, 5 min) and suspended cells pellet in DMEM medium+1% BSA. • Counted the cells and adjust cells density to 250,000/150 μL, add 150 μL cell suspension to each well in 48-well plate. (including 3 wells as no cell control, and 3 well cells without drug or inhibitor as control). • 3. Added 25 μL ketoconazole (final concentration 10^−5 M, 10^−6 M, 10^−7 M, 10^−8 M) or drugs into each designated well. Keep the plate in 37° C. for 10 min. • 4. Preparation of substrate • Took certain amount of DMEM+1% BSA medium (25*Well number+200)μL to a tube, added certain amount of ^3H-1,25(OH)2D3 (well number+2) μL and certain amount of 100 mM DPPD (well number/5)μL and mixed them by vortex. • 5. Incubation • Added 25 μL substrate to each well, incubated the plate at 37° C. for 3 hour. • Added 25 μL substrate to counting plate (2 well) as a total count. • 6. Lipid extraction and counting • Added 500 μL methanol to each well to stop the reaction, transfered them to tube • Added 250 μL dichloromethane and vortex. • Added 250 μL dichloromethane and 250 μL saturated KCI, and vortexed. • Centrifuged at 4000 rpm for 5 min. • Transfered 100 μL of aqueous phase (upper phase) to counting plastic counting plate. Added 600 μL of scintillation fluid to each well. Counted the plate in scintillation counter. • 7. Calculation enzyme activity • CPM of cell control after subtraction of CPM of NCC is as 100% enzyme activity. • Enzyme activity=(CPM in test compounds well−CPM in NCC well)/(CPM in Cell control−CPM in NCC well)* 100% • Dilution of Ketoconazole • Stock 10^−2 M
• Dilution of test compounds • Stock 10^−3 M
In the case of `C=C1/C(=C\C=C2/CCC[C@]3(C)C([C@H](C)CCC/C(=N\O)C(C)(C)C)=CC[C@@H]23)C[C@@H](O)C[C@@H]1O` [I(a)], the “inhibition of CYP24 activity compared to ketoconazole” value (from here on “inhibition … compared to ketoconazole”) is recorded as “significantly greater inhibition of CYP24 than ketoconazole”.

For the compound `C=C1/C(=C\C=C2/CCC[C@]3(C)C([C@H](C)CCC/C(=N\OC)C(C)(C)C)=CC[C@@H]23)C[C@@H](O)C[C@@H]1O` [I(c)], the “inhibition … compared to ketoconazole” value is given as “significantly greater inhibition of CYP24 than ketoconazole”.

Regarding `C=C1/C(=C\C=C2/CCC[C@]3(C)C([C@H](C)CCC/C(=N\OCC)C(C)(C)C)=CC[C@@H]23)C[C@@H](O)C[C@@H]1O` [I(e)], the “inhibition … compared to ketoconazole” value was “significantly greater inhibition of CYP24 than ketoconazole”.

Turning to `C=CCO/N=C(\CCC[C@@H](C)C1=CC[C@H]2/C(=C/C=C3/C[C@@H](O)C[C@H](O)C3=C)CCC[C@]12C)C(C)(C)C` [I(g)], the “inhibition … compared to ketoconazole” value is recorded as “significantly greater inhibition of CYP24 than ketoconazole”.

Consider `C=C1/C(=C\C=C2/CCC[C@]3(C)C([C@H](C)CCC/C(=N\Oc4ccccc4)C(C)(C)C)=CC[C@@H]23)C[C@@H](O)C[C@@H]1O` [I(i)], for which the “inhibition … compared to ketoconazole” value is “significantly greater inhibition of CYP24 than ketoconazole”.
